# Experimental data: paper PMC9827630, “Intra-colony venom diversity contributes to maintaining eusociality in a cooperatively breeding ant” (BMC Biology, 2023)
# Several values for one entry are separate records, joined by “and”; a condition that tells them apart may be missing. Equal values may be shown once. Where no end group is shown, it is not given here.
# Tested on: Acinetobacter baumannii ATCC 19606
# Assay: Antimicrobial growth inhibition (CO-ADD)
# Assay type: cell-based
# Conditions: percentage growth inhibition, absorbance at 600 nm; mean ± SEM
# Protocol: (§1) Antimicrobial and cytotoxicity assays were performed by CO-ADD (The Community for Antimicrobial Drug Discovery, Institute for Molecular Bioscience, The University of Queensland). […] Percentage growth inhibition was calculated using negative controls (media only) and positive controls (no peptide). For the hemolysis assays, human whole blood was washed three times with 3 volumes of 0.9% NaCl and then resuspended in 0.9% NaCl to a concentration of 0.5 × 10^8 cells/mL. Cells were incubated for 1 h at 37°C with or without the peptide. After incubation, plates were centrifuged at 1000 g for 10 min to pellet cells and debris and hemolysis determined by measuring the supernatant absorbance at 405 nm.
row,Substance,Max response ± SEM
1,FWLKGGRGDG-NH2 [Rm53a/b],5 ± 1 and 4 ± 2
2,ILPALIPVFASLLPWAIKKF-NH2 [Rm55b],98 ± 0
3,RNVPRWFTPRL-NH2 [Rm52d],5 ± 2

# Same assay, conditions: sigmoidal dose-response fit of growth inhibition, absorbance at 600 nm
row,Substance,MIC [µM]
1,FWLKGGRGDG-NH2 [Rm53a/b],>29
2,ILPALIPVFASLLPWAIKKF-NH2 [Rm55b],14
3,RNVPRWFTPRL-NH2 [Rm52d],>22

# Tested on: Escherichia coli ATCC 25922
# Assay: Antimicrobial growth inhibition (CO-ADD)
# Assay type: cell-based
# Conditions: percentage growth inhibition, absorbance at 600 nm; mean ± SEM
# Protocol: as §1
row,Substance,Max response ± SEM
1,FWLKGGRGDG-NH2 [Rm53a/b],4 ± 1 and 3 ± 1
2,ILPALIPVFASLLPWAIKKF-NH2 [Rm55b],11 ± 1
3,RNVPRWFTPRL-NH2 [Rm52d],1 ± 2

# Same assay, conditions: sigmoidal dose-response fit of growth inhibition, absorbance at 600 nm
row,Substance,MIC [µM]
1,FWLKGGRGDG-NH2 [Rm53a/b],>29
2,ILPALIPVFASLLPWAIKKF-NH2 [Rm55b],>14
3,RNVPRWFTPRL-NH2 [Rm52d],>22

# Tested on: Klebsiella pneumoniae ATCC 700603
# Assay: Antimicrobial growth inhibition (CO-ADD)
# Assay type: cell-based
# Conditions: percentage growth inhibition, absorbance at 600 nm; mean ± SEM
# Protocol: as §1
row,Substance,Max response ± SEM
1,FWLKGGRGDG-NH2 [Rm53a/b],5 ± 0
2,ILPALIPVFASLLPWAIKKF-NH2 [Rm55b],12 ± 1
3,RNVPRWFTPRL-NH2 [Rm52d],5 ± 0

# Same assay, conditions: sigmoidal dose-response fit of growth inhibition, absorbance at 600 nm
row,Substance,MIC [µM]
1,FWLKGGRGDG-NH2 [Rm53a/b],>29
2,ILPALIPVFASLLPWAIKKF-NH2 [Rm55b],>14
3,RNVPRWFTPRL-NH2 [Rm52d],>22

# Tested on: Pseudomonas aeruginosa ATCC 27853
# Assay: Antimicrobial growth inhibition (CO-ADD)
# Assay type: cell-based
# Conditions: percentage growth inhibition, absorbance at 600 nm; mean ± SEM
# Protocol: as §1
row,Substance,Max response ± SEM
1,FWLKGGRGDG-NH2 [Rm53a/b],12 ± 4 and 11 ± 5
2,ILPALIPVFASLLPWAIKKF-NH2 [Rm55b],3 ± 1
3,RNVPRWFTPRL-NH2 [Rm52d],7 ± 0

# Same assay, conditions: sigmoidal dose-response fit of growth inhibition, absorbance at 600 nm
row,Substance,MIC [µM]
1,FWLKGGRGDG-NH2 [Rm53a/b],>29
2,ILPALIPVFASLLPWAIKKF-NH2 [Rm55b],>14
3,RNVPRWFTPRL-NH2 [Rm52d],>22

# Tested on: Staphylococcus aureus ATCC 43300
# Assay: Antimicrobial growth inhibition (CO-ADD)
# Assay type: cell-based
# Conditions: percentage growth inhibition, absorbance at 600 nm; mean ± SEM
# Protocol: as §1
row,Substance,Max response ± SEM
1,FWLKGGRGDG-NH2 [Rm53a/b],5 ± 1 and 7 ± 2
2,ILPALIPVFASLLPWAIKKF-NH2 [Rm55b],103 ± 1
3,RNVPRWFTPRL-NH2 [Rm52d],12 ± 6

# Same assay, conditions: sigmoidal dose-response fit of growth inhibition, absorbance at 600 nm
row,Substance,MIC [µM]
1,FWLKGGRGDG-NH2 [Rm53a/b],>29
2,ILPALIPVFASLLPWAIKKF-NH2 [Rm55b],≤0.11
3,RNVPRWFTPRL-NH2 [Rm52d],>22

# Tested on: Candida albicans ATCC 90028
# Assay: Antifungal growth inhibition (CO-ADD)
# Assay type: cell-based
# Conditions: percentage growth inhibition, absorbance at 530 nm; mean ± SEM
# Protocol: as §1
row,Substance,Max response ± SEM
1,ILPALIPVFASLLPWAIKKF-NH2 [Rm55b],3 ± 0
2,RNVPRWFTPRL-NH2 [Rm52d],2 ± 1

# Same assay, conditions: sigmoidal dose-response fit of growth inhibition, absorbance at 530 nm
row,Substance,MIC [µM]
1,FWLKGGRGDG-NH2 [Rm53a/b],>29
2,ILPALIPVFASLLPWAIKKF-NH2 [Rm55b],>14
3,RNVPRWFTPRL-NH2 [Rm52d],>22

# Tested on: Cryptococcus neoformans var. grubii H99; ATCC 208821
# Assay: Antifungal growth inhibition (CO-ADD)
# Assay type: cell-based
# Conditions: percentage growth inhibition, difference in absorbance 600 and 570 nm after resazurin, 35°C 2 h; mean ± SEM
# Protocol: as §1
row,Substance,Max response ± SEM
1,ILPALIPVFASLLPWAIKKF-NH2 [Rm55b],86 ± 4
2,RNVPRWFTPRL-NH2 [Rm52d],-13 ± 5

# Same assay, conditions: sigmoidal dose-response fit of growth inhibition, resazurin read-out
row,Substance,MIC [µM]
1,FWLKGGRGDG-NH2 [Rm53a/b],>29
2,ILPALIPVFASLLPWAIKKF-NH2 [Rm55b],11
3,RNVPRWFTPRL-NH2 [Rm52d],>22

# Tested on: Human embryonic kidney cells ATCC CRL-1573
# Assay: Cytotoxicity assay (CO-ADD), resazurin
# Assay type: cell-based
# Conditions: percentage growth inhibition, resazurin fluorescence, 37°C 5% CO2; mean ± SEM
# Protocol: as §1
row,Substance,Max response ± SEM
1,ILPALIPVFASLLPWAIKKF-NH2 [Rm55b],98 ± 1

# Same assay, conditions: resazurin fluorescence; sigmoidal dose-response fit
row,Substance,CC50 (concentration at 50% cytotoxicity) [µM]
1,ILPALIPVFASLLPWAIKKF-NH2 [Rm55b],2.6

# Tested on: Human red blood cells
# Assay: Hemolysis assay (CO-ADD)
# Assay type: cell-based
# Conditions: 1 h at 37°C, absorbance at 405 nm; sigmoidal dose-response fit
# Protocol: as §1
row,Substance,HC50 (concentration at 50% hemolytic activity) [µM]
1,ILPALIPVFASLLPWAIKKF-NH2 [Rm55b],7.4

# Same assay, conditions: hemolysis, washed human blood 0.5 × 10^8 cells/mL in 0.9% NaCl, 1 h at 37°C, supernatant absorbance at 405 nm; mean ± SEM
row,Substance,Max response ± SEM
1,ILPALIPVFASLLPWAIKKF-NH2 [Rm55b],40 ± 3

# Tested on: F11 (mouse neuroblastoma × rat dorsal root ganglion (DRG) neuron hybrid) cells
# Assay: Calcium imaging of F11 cells (FLIPR)
# Assay type: cell-based
# Conditions: increase in [Ca2+]i, max-min fluorescence over 300 s; read-out: EC50 (F11 cells, Table S2)
# Protocol: F11 (mouse neuroblastoma × rat dorsal root ganglion (DRG) neuron hybrid) cells were cultured as previously described. Cells were maintained on Ham’s F12 media supplemented with 10 % fetal bovine serum, 100 μM hypoxanthine, 0.4 μM aminopterin, and 16 μM thymidine (Hybri-MaxTM, Sigma Aldrich). 384-well imaging plates (Corning, Lowell, MA, USA) were seeded 48 h prior to imaging resulting in 90 – 95% confluence at imaging. Cells were incubated for 30 min with Calcium 4 assay component A, as per the manufacturer’s instructions (Molecular Devices, Sunnyvale, CA) in physiological salt solution (PSS; composition in mM: 140 NaCl, 11.5 D-glucose, 5.9 KCl, 1.4 MgCl2, 1.2 NaH2PO4, 5 NaHCO3, 1.8 CaCl2, 10 HEPES) at 37°C. […] Signals were read every second for 10 s before, and 300 s after, the addition of peptides in PSS supplemented with 0.1% bovine serum albumin. All data represent mean ± SEM of a representative assay in triplicate. Fluorescence changes on peptide addition were compared to addition of negative control solution (0.1% BSA in PSS). The resulting maximum-minimum fluorescence in the 300 s period after peptide addition was recorded as the response.
row,Substance,EC50 [µM]
1,ILPALIPVFASLLPWAIKKF-NH2 [Rm55b],4

# Tested on: HEK
# Assay: Ion permeability HEK
# Assay type: cell-based, Human
# Conditions: ions listed as permeant; - = none
row,Substance,ion permeability HEK
1,ILPALIPVFASLLPWAIKKF-NH2 [Rm55b],"Ca2+,Na+,Th+"

# Tested on: F11
# Assay: Ion permeability F11
# Assay type: cell-based, mouse
# Conditions: ions listed as permeant; - = none
row,Substance,ion permeability F11
1,ILPALIPVFASLLPWAIKKF-NH2 [Rm55b],"Ca2+,Na+,Th+"

# Tested on: Female fruit flies (D. melanogaster strain Canton-S)
# Assay: Fruit fly injection assay (lethality, paralysis, climbing)
# Assay type: in vivo, Drosophila melanogaster
# Conditions: 5 nmol/g injected, climbing assay 5 min after injection; significant versus control
# Protocol: Female fruit flies (D. melanogaster strain Canton-S) were injected four to six days post-emergence. Female flies were used because their larger size makes injection easier. Groups of eight female flies were assayed in triplicate for each dose tested. Injection needles were formed from glass capillary tubes (#3-000-203-G/X, Drummond, Birmingham, AL, USA) using a micropipette puller (Sutter Instrument Co. Model P-97), with the fine tip manually trimmed afterwards using scissors. Needles then were filled with mineral oil, connected to a Nanoliter 2000 microinjector ([…], Bensenville, IL USA) equipped with a foot pedal, and ~1 μL of peptide solution or water aspirated. Each group of flies were immobilized by cooling for approximately 2 min on ice, and then decanted on the top of the ‘injection stage’, a petri dish filled with ice. Under a dissecting microscope, each fly was carefully impaled on the lateral thorax behind the wing, and 50.6 nL of venom peptide or water was injected. After injection, each group of flies were returned to their 5 mL plastic tube at room temperature and their behavior observed.
row,Substance,Motor behavior (climbing assay)
1,ILPALIPVFASLLPWAIKKF-NH2 [Rm55b],disrupted motor behavior

# Tested on: HAP1 cells
# Assay: Cell viability assay, resazurin
# Assay type: cell-based
# Conditions: not given
# Protocol: In addition to the cytotoxicity assays performed by CO-ADD, we screened the synthetic peptides for toxicity in cell viability assays using HAP1, MM96L, and HEK293T cells. peptides were reconstituted in 100% DMSO then diluted in cell media (HAP1: IMDM (Sigma Aldrich) with 10% FBS and 1% Penicillin/Streptomycin (P/S); MM96L: RPMI (Gibco) with 10% FBS, 1% P/S and 1% GlutaMAX (Gibco); HEK293T: DMEM high glucose (Gibco), with 10% FBS and 1% P/S. Trypsinized cells ([…]) were seeded in each well of a 96-well plate. 0.01 to 1000 μM peptide was added to each well after 24 h, and the cells incubated for an additional 74 h. After incubation, the medium was aspirated from each well and 150 μL of fresh medium containing a 0.002% solution of resazurin (Sigma-Aldrich) was added to the wells and incubated for 4 h at 37 °C. The absorbance was measured at 570 nm using a microplate spectrophotometer (FLUOstar Omega, BMG Labtech, Germany). Percentage cell viability at concentrations of 10 and 100 μM peptide were compared with negative control by one-way ANOVA Dunnett’s multiple comparisons test (GraphPad Prism8).
row,Substance,Cytotoxicity to HAP cells
1,ILPALIPVFASLLPWAIKKF-NH2 [Rm55b],cytotoxic to HAP cells

# Same assay, conditions: 10 μM peptide, n = 3 per group
row,Substance,HAP cell viability
1,ILPALIPVFASLLPWAIKKF-NH2 [Rm55b],significantly reduced HAP cell viability

# Tested on: panel of microbes
# Assay: Antimicrobial screening, summary over the panel of microbes
# Assay type: cell-based
# Conditions: all strains of the panel (for Rm54a and Rm55a: strains other than S. aureus)
# Protocol: as §1
row,Substance,Growth inhibition over the microbial strains examined
1,FWLKGGRGDG-NH2 [Rm53a/b],no inhibitory activity
2,RNVPRWFTPRL-NH2 [Rm52d],no inhibitory activity
